Assay: pKa of oil formers by titration with tetrabutylammonium hydroxide
Format: physicochemical
Details: titration with TBAH in dimethyl sulfoxide/water (100:0.25)

Substance: tricresyl phosphate [TCP]
- pKa of oil former: >20
